Measurements as given in US8492614B2, “Plant biochemical systems and uses thereof” (The Board of Trustees of the University of Illinois, priority 2007, dated 2013).
Entries after “also recorded” stand apart in the source; their conditions may differ. Read-outs that look alike come from different tables or passages of the source.

How the values were obtained:
[1] = system: etiolated Arabidopsis gcr1, gpa1 or pd1 mutants; experiment: UV sensitivity of etiolated Arabidopsis mutants with phenylalanine added to the growth media; assay type: in vivo
[2] = system: soybean; experiment: Long-term growth and seed yield of UV-treated soybean supplemented with Phe; assay type: in vivo, soybean (Glycine max L.); settings: Phe supplement before UV (300 nm) on day 3, grown to seed set
Method: Referring to FIG. 22, it was shown that treating soybean with Phe reverses the negative effects of UV-radiation. Seedlings were grown identically to that described for FIGS. 13 and 14, where soybean were supplemented with Phe (+Phe) or not (−Phe). Soybean were grown to seed set in greenhouse conditions where growth characteristics and evaluation of pods and seeds occurred during and after ripening.

[3] = pH 7.4
[4] = system: Japanese beetles; experiment: Predation on Harosoy soybean grown outside, with or without Phe in the planting media; assay type: in vivo; settings: 1 mM Phe in planting media; 300 nm or no light on day 3; 21 d outside; listed as Phe
Method: As Phe is the starting substrate of the phenylpropanoid pathway it may be that inclusion of Phe in the growth media of young seedlings allows for the synthesis of many phenylpropanoids in addition to those that can act as UV-B screening pigments, and thereby prevent the deleterious effects other abiotic and biotic stress. To test this hypothesis we planted sets of seeds of Harosoy dense and Harosoy glabrous. Planting media for one set of plants of each isoline was supplemented with 1 mM final concentration of Phe. Three d after planting, germinating sets of seedlings were irradiated with a low fluence pulse of 300 nm (i.e. an abiotic stress), or no light (Untreated), then transplanted outside to grow in natural conditions for 21 d during the normal growing season. A random planting pattern for was generated for the six One leaf from the first set of leaves and one leaf (the middle of the trifoliate) from the second set of leaves was harvested on day 21. These leaves were each weighed directly (fresh weight) and scanned to have a pictorial representation of the experienced damage as shown in FIG. 28. […] Comparison among the six variations indicates predation mainly on the glabrous (hairless) plants.

[5] = system: etiolated soybean seedlings; experiment: Soybean seedlings irradiated with low fluence UV, grown with or without phenylalanine in the growth media; assay type: in vivo, soybean (Glycine max L.); settings: for protection from the effects of high energy UV (lack of seed development, seed death): 1 mM phenylalanine in growth media, low fluence 300, 305, 311 or 317 nm on day 3 after planting
Text: Three varieties, Williams, Forrest, and Williams 82, serve as the progenitor germplasms used in many US soybean breeding programs. These germplasms were used in the experiments described in the Examples, and representative data is shown. In general soybean experiments are done using etiolated seedlings irradiated 3 days after planting or 7 days after planting, in contrast to the regime (6 days dark growth) used for Arabidopsis experiments. For the soybean experiments we have used a high intensity light source filtered through narrow band pass for a low fluence radiation dose of (10^4 μmol m^−2), with (10 nm half band width) filters of peak pass-through at 300, 305, 311, 317, 325, 332 and 368 nm. Soybean primary leaves are sensitive to UV, with the greatest damage occurring in response to irradiation with the greatest energy (smallest wavelength). Three day old etiolated wild type Williams, Forest and Williams 82 soybean seedlings of were individually irradiated with a single low fluence pulse of 300, 305, 311, 317, 325, 332, 368 nm or no light (as a control). After irradiation seedlings were maintained in a summer day-night cycle (14 hr white light: 10 hr dark) to allow for photoreactivation and other forms of light mediated repair until day 8. Irradiation with 300, 305 or 311 nm light results in a “severe” damage with a greater then 70% mortality rate by day 8 (FIGS. 9,10). Irradiation with 317 or 325 nm results in a ‘moderate’ response, with a mortality of approximately 20%. […] Seedlings irradiated with 300, 317 or 368 nm light, or no UV light (as a control) were assessed 3, 7, 14, 21 and 28 days post planting. […] The very young seedlings were able to use the phenylalanine in the growth media to supplement the limiting amounts available in the seed to produce a larger quantity of UV screening pigments, and perhaps other compounds important to UV protection, thereby protecting themselves against the UV itself and perhaps enacting enhanced repair functions after the UV irradiation. […]

[6] = system: glabrous soybean seedlings; experiment: UV sensitivity of glabrous versus dense-hair soybean isolines; assay type: in vivo; settings: few-hair (glabrous) variety, small amounts of UV
Method: Varieties that show sensitivity to UV are retained for more detailed testing of responses to UV and exogenous regulators. […] As isoline of hard soy with dense hairs was tested vs. hard soy with few (glafrous) hairs. […] Isogenic lines of Harasoy “dense” (many hairs per area) and “glabrous” (few or no hairs per area) were used to see if hairs themselves directly assisted in protection from UV-B radiation. Seedlings were grown and treated in the same manner as that shown in FIG. 18, then the integrity of the internal structures assessed by TEM as shown in FIG. 18.

In the case of `N[C@@H](Cc1ccccc1)C(=O)O` [phenylalanine], the “rescue of UV sensitivity of mutants” value [1] is reported as “can rescue gcr1, gpa1 or pd1 mutants”, the “rescue of UV sensitivity of mutants” value ([1]; listed as Phe) is reported as “restores waxes, fatty acids, UV-absorbing materials and restores resistance to UV damage in pd1 mutants; also recorded: able to respond to UV like wild type” and the “long-term growth, seed set and seed yield after UV treatment” value [2] is reported as “can reverse the negative effect on yield of UV; also recorded: serves a protective role to the plant in permitting the plant to achieve adult stage and seed set”. The “long-term growth, seed set and seed yield after UV treatment” value ([2]; listed as Phe) was “indistinguishable from untreated seedlings; also recorded: reversal of the negative effects of UV-radiation”, the “degradation in buffered solution” value [3] was “appeared to not degrade even for days” and the predation on leaves [4] was “experienced less predation; also recorded: can be reduced”. The “growth characteristics after UV irradiation” value ([5]; 1.0 mM Phe in growth media, seven d post-irradiation) was “restores growth characteristics regardless of UV wavelength”, the “protection from the effects of high energy UV (lack of seed development, seed death)” value [5] was “able to ameliorate the most negative of the effects of high energy UV” and the “protection from the effects of high energy UV (lack of seed development, seed death)” value ([5]; listed as Phe) was “can overcome the most deleterious effects of high energy UV in soybean”. The “correction of UV damage in the glabrous variety” value [6] was “can correct these deficiencies”.
